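Where inhibition never reached the appropriate level, the endpoint shown equals the highest concentration tested. Otherwise, values were interpolated linearly from a five-concentration, 48-hour dose response in 96-well plates. GI50 is the concentration that inhibits growth by half.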 The source made the active and inactive calls. Rule as the data show it: active = GI50 up to about 1.1 µM and inactive = higher.
Tests used:
Experiment in all cases: growth of human tumour cells (NCI), 48 h
OVCAR-5 = system: OVCAR-5
A549 = system: A549
NCI-H460 = system: NCI-H460
SF-539 = system: SF-539
KM12 = system: KM12
SK-OV-3 = system: SK-OV-3
DLD-1 = system: DLD-1
LOX IMVI = system: LOX IMVI
SW-620 = system: SW-620
UACC-257 = system: UACC-257
M19-MEL = system: M19-MEL
NCI-H522 = system: NCI-H522
CAKI-1 = system: CAKI-1
HT-29 = system: HT-29
U-251 = system: U-251
LXFL 529 = system: LXFL 529
ACHN = system: ACHN
MOLT-4 = system: MOLT-4
HOP-92 = system: HOP-92
NCI-H23 = system: NCI-H23
TK-10 = system: TK-10
K562 = system: K562
SK-MEL-5 = system: SK-MEL-5
CCRF-CEM = system: CCRF-CEM
RPMI-8226 = system: RPMI-8226
OVCAR-4 = system: OVCAR-4
EKVX = system: EKVX
UACC-62 = system: UACC-62
Malme-3M = system: Malme-3M
SF-268 = system: SF-268
SN12C = system: SN12C
HL-60 = system: HL-60
SNB-19 = system: SNB-19
XF498 = system: XF498
IGROV-1 = system: IGROV-1
OVCAR-3 = system: OVCAR-3
DMS-114 = system: DMS-114
786-0 = system: 786-0
SK-MEL-28 = system: SK-MEL-28
COLO 205 = system: COLO 205
HCC 2998 = system: HCC 2998
HCT-116 = system: HCT-116
SF-295 = system: SF-295
DMS-273 = system: DMS-273
M14 = system: M14
UO-31 = system: UO-31
SK-MEL-2 = system: SK-MEL-2
SNB-75 = system: SNB-75
NCI-H226 = system: NCI-H226
OVCAR-8 = system: OVCAR-8
A498 = system: A498
HCT-15 = system: HCT-15
KM-20L2 = system: KM-20L2
HOP-62 = system: HOP-62
RXF 393 = system: RXF 393
HOP-18 = system: HOP-18
SNB-78 = system: SNB-78

Cc1cc(N(CCC#N)CCC#N)ccc1/C=C/C(=O)Nc1ccccc1Cl
GI50 (OVCAR-5): > 100 µM (inactive) | GI50 (A549): > 100 µM (inactive) | GI50 (NCI-H460): > 100 µM (inactive) | GI50 (SF-539): > 100 µM (inactive) | GI50 (KM12): > 100 µM (inactive) | GI50 (SK-OV-3): > 100 µM (inactive) | GI50 (DLD-1): > 100 µM (inactive) | GI50 (LOX IMVI): > 100 µM (inactive) | GI50 (SW-620): > 100 µM (inactive) | GI50 (UACC-257): > 100 µM (inactive) | GI50 (M19-MEL): > 100 µM (inactive) | GI50 (NCI-H522): > 100 µM (inactive) | GI50 (CAKI-1): > 100 µM (inactive) | GI50 (HT-29): > 100 µM (inactive) | GI50 (U-251): > 100 µM (inactive) | GI50 (LXFL 529): > 100 µM (inactive) | GI50 (ACHN): > 100 µM (inactive) | GI50 (MOLT-4): > 100 µM (inactive) | GI50 (HOP-92): > 100 µM (inactive) | GI50 (NCI-H23): > 100 µM (inactive) | GI50 (TK-10): > 100 µM (inactive) | GI50 (K562): > 100 µM (inactive) | GI50 (SK-MEL-5): > 100 µM (inactive) | GI50 (CCRF-CEM): 45.5 µM (inactive) | GI50 (RPMI-8226): > 100 µM (inactive) | GI50 (OVCAR-4): > 100 µM (inactive) | GI50 (EKVX): > 100 µM (inactive) | GI50 (UACC-62): > 100 µM (inactive) | GI50 (Malme-3M): > 100 µM (inactive) | GI50 (SF-268): > 100 µM (inactive) | GI50 (SN12C): > 100 µM (inactive) | GI50 (HL-60): 31.4 µM (inactive) | GI50 (SNB-19): > 100 µM (inactive) | GI50 (XF498): > 100 µM (inactive) | GI50 (IGROV-1): > 100 µM (inactive) | GI50 (OVCAR-3): > 100 µM (inactive) | GI50 (DMS-114): > 100 µM (inactive) | GI50 (786-0): > 100 µM (inactive) | GI50 (SK-MEL-28): > 100 µM (inactive) | GI50 (COLO 205): > 100 µM (inactive) | GI50 (HCC 2998): > 100 µM (inactive) | GI50 (HCT-116): > 100 µM (inactive) | GI50 (SF-295): > 100 µM (inactive) | GI50 (DMS-273): > 100 µM (inactive) | GI50 (M14): > 100 µM (inactive) | GI50 (UO-31): > 100 µM (inactive) | GI50 (SK-MEL-2): > 100 µM (inactive) | GI50 (SNB-75): > 100 µM (inactive) | GI50 (NCI-H226): > 100 µM (inactive) | GI50 (OVCAR-8): > 100 µM (inactive) | GI50 (A498): > 100 µM (inactive) | GI50 (HCT-15): > 100 µM | GI50 (KM-20L2): > 100 µM (inactive) | GI50 (HOP-62): > 100 µM (inactive)

CC(C)CCCC(C)[C@H]1CCC2[C@@H]3CCC4Nc5nocc5C[C@]4(C)C3CC[C@@]21C (some centres not stated)
GI50 (OVCAR-5): > 10 µM (inactive) | GI50 (A549): 21.2 µM (inactive) | GI50 (NCI-H460): 20 µM (inactive) | GI50 (RXF 393): 14.8 µM (inactive) | GI50 (SF-539): 18.9 µM (inactive) | GI50 (KM12): 19.9 µM (inactive) | GI50 (SK-OV-3): 19.4 µM (inactive) | GI50 (HOP-18): 13.6 µM (inactive) | GI50 (DLD-1): 19.7 µM (inactive) | GI50 (LOX IMVI): 2.23 µM (inactive) | GI50 (SW-620): 15.1 µM (inactive) | GI50 (UACC-257): 19.7 µM (inactive) | GI50 (M19-MEL): 16.9 µM (inactive) | GI50 (NCI-H522): 3.15 µM (inactive) | GI50 (CAKI-1): 14.4 µM (inactive) | GI50 (HT-29): 18.5 µM (inactive) | GI50 (U-251): 15.7 µM (inactive) | GI50 (SNB-78): 19.3 µM (inactive) | GI50 (LXFL 529): 11.8 µM (inactive) | GI50 (ACHN): 14.7 µM (inactive) | GI50 (MOLT-4): 18.2 µM (inactive) | GI50 (NCI-H23): 14.6 µM (inactive) | GI50 (TK-10): 8.07 µM (inactive) | GI50 (K562): 15.8 µM (inactive) | GI50 (SK-MEL-5): 14.6 µM (inactive) | GI50 (CCRF-CEM): 7.23 µM (inactive) | GI50 (RPMI-8226): 20.3 µM (inactive) | GI50 (OVCAR-4): 19.4 µM (inactive) | GI50 (EKVX): 16.1 µM (inactive) | GI50 (UACC-62): 22.5 µM (inactive) | GI50 (Malme-3M): 15.5 µM (inactive) | GI50 (SF-268): 17.2 µM (inactive) | GI50 (SN12C): 18.1 µM (inactive) | GI50 (HL-60): 9.02 µM (inactive) | GI50 (SNB-19): 21.2 µM (inactive) | GI50 (IGROV-1): 25.6 µM (inactive) | GI50 (OVCAR-3): 5.61 µM (inactive) | GI50 (786-0): 11.4 µM (inactive) | GI50 (COLO 205): 6.14 µM (inactive) | GI50 (HCC 2998): 15.5 µM (inactive) | GI50 (HCT-116): 18.4 µM (inactive) | GI50 (SF-295): 19.3 µM (inactive) | GI50 (DMS-273): 19.2 µM (inactive) | GI50 (M14): 16.3 µM (inactive) | GI50 (UO-31): 14.6 µM (inactive) | GI50 (SK-MEL-2): 20.7 µM (inactive) | GI50 (SNB-75): 15.6 µM (inactive) | GI50 (NCI-H226): 19.9 µM (inactive) | GI50 (OVCAR-8): 12.6 µM (inactive) | GI50 (A498): 21.6 µM (inactive) | GI50 (HCT-15): 14.6 µM | GI50 (KM-20L2): 21.2 µM (inactive) | GI50 (HOP-62): 47.1 µM (inactive)
